# pEC50, pIC50: −log10 of the molar value.
# Key:
# [1] = target: T1, HCV NS3/4A protease complex, J4L6S strain (Hepatitis C virus genotype 1b, UniProt O92972, C1454S/C1711G); assay: FRET peptide assay to monitor HCV NS3/4A proteolytic activity (J4L6S strain); assay type: biochemical, HCV genotype 1b
# T1 construct: DNA encoding the recombinant HCV NS3/4A protease complex (amino acids 1027 to 1711) for these strains; His tag (inferred from pET21b vector and Ni-NTA purification); made in house; host or cells: Escherichia coli BL21 (DE3), pET21b
# Description: HCV NS3 protease complexes, derived from the BMS strain, H77 strain or J4L6S strain, were generated, as described below. These purified recombinant proteins were generated for use in a homogeneous assay (see below) to provide an indication of how effective compounds of the present disclosure would be in inhibiting HCV NS3 proteolytic activity.
# Serum from an HCV-infected patient was obtained from Dr. T. Wright, San Francisco Hospital. An engineered full-length cDNA (compliment deoxyribonucleic acid) template of the HCV genome (BMS strain) was constructed from DNA fragments obtained by reverse transcription-PCR(RT-PCR) of serum RNA (ribonucleic acid) and using primers selected on the basis of homology between other genotype 1a strains. From the determination of the entire genome sequence, a genotype 1a was assigned to the HCV isolate according to the classification of Simmonds et al. (See P Simmonds, K A Rose, S Graham, S W Chan, F McOmish, B C Dow, E A Follett, P L Yap and H Marsden, J. Clin. Microbiol., 31(6), 1493-1503 (1993)). […]
# [2] = tested on: HCV replicon (Renilla luciferase reporter) in HUH-7 cells; assay: HCV replicon luciferase reporter assay; assay type: cell-based, HCV strain 1b; conditions: Huh-7, 96 h, 4 days
# human liver cathepsin B = target: T2, human liver cathepsin B (Homo sapiens, UniProt P07858); assay: Specificity assay, cathepsin B; assay type: biochemical; conditions: 2 h enzyme-inhibitor pre-incubation
# T2 construct: purchased Sigma; host or cells: human liver (by name)
# Protocol: The specificities of compounds of the present disclosure were determined against a variety of serine proteases: human neutrophil elastase (HNE), porcine pancreatic elastase (PPE) and human pancreatic chymotrypsin and one cysteine protease: human liver cathepsin B. In all cases a 96-well plate format protocol using colorimetric p-nitroaniline (pNA) substrate specific for each enzyme was used as described previously (PCT Patent Application No. WO 00/09543) with some modifications to the serine protease assays. All enzymes were purchased from Sigma while the substrates were from Bachem.
# Each assay included a 2 h enzyme-inhibitor pre-incubation at room temperature followed by addition of substrate and hydrolysis to ˜30% conversion as measured on a Spectramax Pro microplate reader. Compound concentrations varied from 100 to 0.4 μM depending on their potency.
# 100 mM NaHPO4 (Sodium Hydrogen Phosphate) pH 6, 0.1 mM EDTA, 3% DMSO, 1 mM TCEP (Tris(2-carboxyethyl)phosphine hydrochloride), 0.01% Tween-20, 30 μM Z-FR-pNA and 5 nM Cathepsin B (enzyme stock activated in buffer containing 20 mM TCEP before use).
# The percentage of inhibition was calculated using the formula: [1−((UVinh−UVblank)/(UVctl−UVblank))]×100
# A non-linear curve fit was applied to the inhibition-concentration data, and the 50% effective concentration (IC50) was calculated by the use of Excel Xl-fit software.
# T1 sequence (O92972 1027-1711 C1454S/C1711G, one chain of several): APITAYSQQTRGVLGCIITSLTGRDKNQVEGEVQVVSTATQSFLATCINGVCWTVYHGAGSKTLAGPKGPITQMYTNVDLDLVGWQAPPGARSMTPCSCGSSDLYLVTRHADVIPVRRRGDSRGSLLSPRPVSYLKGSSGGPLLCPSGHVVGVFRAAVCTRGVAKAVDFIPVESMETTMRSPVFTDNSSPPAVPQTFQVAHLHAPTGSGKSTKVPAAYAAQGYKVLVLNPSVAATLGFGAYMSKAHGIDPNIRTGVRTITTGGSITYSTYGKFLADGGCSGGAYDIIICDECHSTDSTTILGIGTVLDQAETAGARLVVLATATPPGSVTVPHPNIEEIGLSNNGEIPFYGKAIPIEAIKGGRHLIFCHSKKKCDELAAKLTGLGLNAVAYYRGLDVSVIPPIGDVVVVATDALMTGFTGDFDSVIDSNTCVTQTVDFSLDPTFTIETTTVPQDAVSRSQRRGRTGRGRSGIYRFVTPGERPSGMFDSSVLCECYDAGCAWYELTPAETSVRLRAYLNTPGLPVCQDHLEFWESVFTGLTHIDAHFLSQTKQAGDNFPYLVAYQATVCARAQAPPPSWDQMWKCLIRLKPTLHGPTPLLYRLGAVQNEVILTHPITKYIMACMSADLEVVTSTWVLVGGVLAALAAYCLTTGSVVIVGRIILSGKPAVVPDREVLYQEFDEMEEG
smiles,measurement,setting,value
C=C[C@@H]1C[C@]1(NC(=O)[C@@H]1C[C@@H](OC(=O)c2ccccc2)CN1C(=O)[C@@H](NC(=O)OC(C)(C)C)C(C)(C)C)C(=O)NS(=O)(=O)C1CC1 [Compound 1],pIC50,[1],8.60
same,pEC50,[2],7.29
same,pIC50,human liver cathepsin B,< 4.30

# From US7935670B2, “Hepatitis C virus inhibitors” (Bristol-Myers Squibb Company, priority 2006, dated 2011)
